The results in this text go back to publication PMC4199632, “Exploring the Anti-Cancer Activity of Novel Thiosemicarbazones Generated through the Combination of Retro-Fragments: Dissection of Critical Structure-Activity Relationships” (PLoS ONE, 2014).

Molecules are shown by their SMILES.

Test [1] deals with Raji Burkitt's lymphoma cells. The test is described as follows: Proliferation assay (MTT, 72 h). It is filed as cell-based. The settings on record: Homo sapiens, 72 h incubation, mean ±SD (3 experiments). The method, boiled down: (§1)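 Cells seeded 24 h before treatment, then exposed at 37 °C for 72 h (SK-N-MC, Raji, HeLa) or 96 h (HCT116, NHDF); final DMSO <0.05%. Read-outs: MTT at 570 nm (SK-N-MC, Raji), crystal violet at 595 nm (HeLa), MTS at 490 nm (HCT116, NHDF); IC50 is 50% absorbance versus untreated control, triplicates repeated three times.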

The subject of test [2] is SK-N-MC neuroepithelioma cells. The test is described as follows: Proliferation assay (MTT, 72 h). The test is classed as cell-based. The settings on record: Homo sapiens, 72 h incubation, mean ±SD (3 experiments). The method, boiled down: as §1
The subject of the next test is SK-N-MC cells. The test is described as follows: Inhibition of cellular 59Fe uptake from 59Fe2-Tf. The settings on record: chelator 25 µM; for Internalized 59Fe uptake from 59Fe2-Tf (% of the control): 59Fe2-Tf 0.75 µM, 3 h/37°C. The test is classed as cell-based, human. As for the experimental part: The iron transport protein, Tf (Sigma-Aldrich), was labeled with ^59Fe (PerkinElmer Life and Analytical Sciences, Boston, MA) to form ^59Fe2-Tf using standard methods, [7]. Unbound ^59Fe was removed by passage through a Sephadex G25 column and was followed by exhaustive dialysis, [7].
The ability of the chelators to prevent the cellular uptake of ^59Fe from ^59Fe2-Tf was examined using standard methods, [14], [17], [18], [50]. A monolayer of SK-N-MC cells was incubated with medium containing ^59Fe2-Tf (0.75 µM) and the chelator (25 µM) for 3 h at 37°C. The medium was then removed and the cells were washed four times with ice-cold PBS. The cells were then incubated for 30 min at 4°C with the general protease, Pronase (1 mg/mL; Sigma-Aldrich), to remove membrane-bound ^59Fe. The cells were removed using a plastic spatula and centrifuged at 14,000 rpm/1 min to separate internalized from membrane-bound ^59Fe. The cell pellet was resuspended in 1 mL of PBS and the internalized ^59Fe was measured on a γ-scintillation counter. Internalized ^59Fe uptake was calculated as a percentage of the control (medium alone). Again, the novel ligands were compared to DFO and Dp44mT as their ability to inhibit cellular ^59Fe uptake has been extensively characterized using SK-N-MC cells, [14], [17], [18], [50].
Figure 8 Effect of (A) series 1, (B) series 2, (C) series 3, (D) series 4, (E) series 5 and (F) series 6 chelators, relative to the controls DFO and Dp44mT, on ^59Fe uptake from ^59Fe-transferrin by SK-N-MC cells. Cells were incubated for 3 h/37°C with ^59Fe-transferrin (0.75 µM) in the presence or absence of the chelators (25 µM). At the end of this incubation, cells were washed 4 times with ice-cold PBS. Internalization of ^59Fe was assessed by incubation for 30 min/4°C with the protease, Pronase (1 mg/mL). Cellular ^59Fe was then assessed using a γ-scintillation counter. Results are mean ±SD (3 experiments).

On to `S=C(NN=C(c1ccccn1)c1ccccn1)N1CCN(c2cnccn2)CC1` [1e], for which the figures for the IC50 in test [1] and in test [2] were 40 ± 20 nM and 70 ± 50 nM, respectively.

Regarding `CCN1CCN(C(=S)N/N=C/c2ccc3ccccc3n2)CC1` [2a], in the test on SK-N-MC cells, the “Inhibition of 59Fe uptake compared with controls” value was “comparable ability to inhibit ^59Fe uptake to the control medium”. In addition, the IC50 (in general, the point on the concentration scale where inhibition reaches its midpoint) in test [1] was 60 ± 20 nM; in test [2] it was 2540 ± 860 nM.

`S=C(N/N=C/c1ccc2ccccc2n1)N1CCN(c2ccccc2)CC1` [2b]: in the test on SK-N-MC cells, the “Inhibition of 59Fe uptake compared with controls” value is “comparable inhibition of ^59Fe uptake to that of DFO”. Further, the IC50 in test [1] was 40 ± 10 nM; in test [2], 330 ± 20 nM.

As to `CN(C(=S)N/N=C/c1ccc2ccccc2n1)C1CCCCC1` [2f], the “Inhibition of 59Fe uptake compared with controls” value in the test on SK-N-MC cells is recorded as “comparable inhibition of ^59Fe uptake to that of DFO”. The IC50 in test [1] worked out at 810 ± 100 nM; in test [2], 820 ± 190 nM.

As for `CN(C(=S)N/N=C/c1cnc2ccccc2n1)C1CCCCC1` [5f], in the test with SK-N-MC cells, the “Inhibition of 59Fe uptake compared with controls” value is “comparable inhibition of ^59Fe uptake to that of DFO”. In addition, the half-maximal inhibitory concentration (IC50) in test [1] came to 720 ± 290 nM; in test [2], 2040 ± 340 nM.

On to `CN(C(=S)N/N=C/c1ccccc1O)C1CCCCC1` [6f], for which the “Internalized 59Fe uptake from 59Fe2-Tf (% of the control)” value in the test with SK-N-MC cells is reported as 3.6–11.5%. The IC50 in test [1] was 690 ± 510 nM; in test [2], more than 6250 nM.

For the molecule `CC(=O)N(O)CCCCCNC(=O)CCC(=O)N(O)CCCCCNC(=O)CCC(=O)N(O)CCCCCN` [DFO, desferrioxamine, reference compound], the “Internalized 59Fe uptake from 59Fe2-Tf (% of the control)” value in the test on SK-N-MC cells worked out at 83%. In addition, the IC50 in test [1] was determined as 4740 ± 1800 nM; in test [2], 15100 ± 5200 nM.

For `CN(C)C(=S)NN=C(c1ccccn1)c1ccccn1` [Dp44mT, di-2-pyridylketone 4,4-dimethyl-3-thiosemicarbazone, reference compound], the “Internalized 59Fe uptake from 59Fe2-Tf (% of the control)” value in the test with SK-N-MC cells is given as 6%. The IC50 in test [1] amounted to 7 ± 1 nM; in test [2], 12 ± 1 nM.
